Source: PubChem BioAssay (NCI)
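Five compound concentrations were applied to cells in 96-well plates for 48 hours; endpoints were derived by simple linear interpolation of the resulting dose-response curve. TGI: total growth inhibition.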

Columns and labels:
Assay in all cases: NCI tumour cell line growth inhibition, 48 h
SR leukemia = test system: SR leukemia
OVCAR-8 ovarian = test system: OVCAR-8 ovarian
HCT-15 colon = test system: HCT-15 colon
IGROV1 ovarian = test system: IGROV1 ovarian
DMS 114 small cell lung = test system: DMS 114 small cell lung
786-0 renal = test system: 786-0 renal
XF 498 CNS = test system: XF 498 CNS
EKVX NSCLC = test system: EKVX NSCLC
SW-620 colon = test system: SW-620 colon
HT29 colon = test system: HT29 colon
OVCAR-4 ovarian = test system: OVCAR-4 ovarian
A498 renal = test system: A498 renal
SK-MEL-28 melanoma = test system: SK-MEL-28 melanoma
SF-295 CNS = test system: SF-295 CNS
ACHN renal = test system: ACHN renal
NCI-H460 lung = test system: NCI-H460 lung
MALME-3M melanoma = test system: MALME-3M melanoma
SN12C renal = test system: SN12C renal
SF-268 CNS = test system: SF-268 CNS
RXF-631 renal = test system: RXF-631 renal
K-562 leukemia = test system: K-562 leukemia
UO-31 renal = test system: UO-31 renal
SK-OV-3 ovarian = test system: SK-OV-3 ovarian
SNB-19 CNS = test system: SNB-19 CNS
SNB-78 CNS = test system: SNB-78 CNS
RPMI-8226 leukemia = test system: RPMI-8226 leukemia
CAKI-1 renal = test system: CAKI-1 renal
U251 CNS = test system: U251 CNS
SK-MEL-2 melanoma = test system: SK-MEL-2 melanoma
OVCAR-3 ovarian = test system: OVCAR-3 ovarian
M19-MEL melanoma = test system: M19-MEL melanoma
KM12 colon = test system: KM12 colon
OVCAR-5 ovarian = test system: OVCAR-5 ovarian
HCT-116 colon = test system: HCT-116 colon
NCI-H522 lung = test system: NCI-H522 lung
LXFL 529 NSCLC = test system: LXFL 529 NSCLC
MOLT-4 leukemia = test system: MOLT-4 leukemia
UACC-62 melanoma = test system: UACC-62 melanoma
UACC-257 melanoma = test system: UACC-257 melanoma
HOP-62 NSCLC = test system: HOP-62 NSCLC
SK-MEL-5 melanoma = test system: SK-MEL-5 melanoma
LOX IMVI melanoma = test system: LOX IMVI melanoma
NCI-H226 lung = test system: NCI-H226 lung
SF-539 CNS = test system: SF-539 CNS
HCC-2998 colon = test system: HCC-2998 colon
A549 NSCLC = test system: A549 NSCLC
SNB-75 CNS = test system: SNB-75 CNS
KM20L2 colon = test system: KM20L2 colon
DMS 273 small cell lung = test system: DMS 273 small cell lung
M14 melanoma = test system: M14 melanoma
HL-60(TB) leukemia = test system: HL-60(TB) leukemia
DLD-1 colon = test system: DLD-1 colon
NCI-H23 lung = test system: NCI-H23 lung
HOP-92 NSCLC = test system: HOP-92 NSCLC
HOP-18 NSCLC = test system: HOP-18 NSCLC
RXF 393 renal = test system: RXF 393 renal
CCRF-CEM leukemia = test system: CCRF-CEM leukemia
TK-10 renal = test system: TK-10 renal

Measured: TGI

COC(=O)C1=C(C)N(NC(=O)c2cccc(Cl)c2)C(C)(O)C12CCOC2=O (stereo unspecified)
not listed: HL-60(TB) leukemia | DLD-1 colon | NCI-H23 lung | HOP-92 NSCLC | HOP-18 NSCLC | RXF 393 renal | CCRF-CEM leukemia | TK-10 renal
> 100 µM: all other assays above

Cc1ccc(S(=O)(=O)NC(=O)C#CCOC2CCCCO2)cc1 (stereo unspecified)
not listed: IGROV1 ovarian | SF-268 CNS | SK-OV-3 ovarian | SNB-78 CNS | KM12 colon | NCI-H522 lung | HOP-62 NSCLC
> 100 µM: all other assays above
